Consider three molecules from PMC3984052 (Bioorganic & medicinal chemistry, 2014).

The subject of this assay is PrP^C in N2a-cl3 neuroblastoma cells that overexpress PrP^C. The assay is classed as cell-based, mouse. Conditions: values not given.
As to `COc1cc(OC)cc(C(=O)Nc2ccc(I)cn2)c1` [IND85671], the “Potency (EC50 by ELISA) in N2a-cl3 cells, in words” value is reported as “potent”.
Under `NC(=O)c1ccccc1NC(=O)c1cccnc1N1CCCCC1` [IND87406] stands “potent”; under `CCOC(=O)c1[nH]c2c(c1C)C(=O)CC(c1ccco1)C2` (stereo not drawn) [IND87564], “potent”.
